SMILES strings stand for the structures. Entries after “also recorded” stand apart in the source; their conditions may differ.

In one experiment the target is T1, LXRβ (Homo sapiens, UniProt P55055).
T1 sequence (P55055 1-460): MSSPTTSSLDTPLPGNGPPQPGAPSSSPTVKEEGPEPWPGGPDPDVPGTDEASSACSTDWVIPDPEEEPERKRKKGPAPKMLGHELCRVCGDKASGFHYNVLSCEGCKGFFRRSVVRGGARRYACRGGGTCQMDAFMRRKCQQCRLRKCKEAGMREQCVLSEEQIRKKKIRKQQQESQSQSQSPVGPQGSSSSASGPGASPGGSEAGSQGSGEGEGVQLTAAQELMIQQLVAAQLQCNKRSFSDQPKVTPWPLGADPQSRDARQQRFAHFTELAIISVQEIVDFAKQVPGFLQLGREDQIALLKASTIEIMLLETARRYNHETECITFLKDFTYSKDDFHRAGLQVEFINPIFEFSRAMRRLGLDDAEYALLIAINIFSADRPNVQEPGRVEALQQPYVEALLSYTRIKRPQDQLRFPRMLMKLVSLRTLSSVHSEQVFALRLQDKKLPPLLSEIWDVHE
Kind of experiment: activity on nuclear receptor LXRβ.

Experiment [1] relates to B6129S1 hybrid Col4a3−/− mice. As to the kind of experiment: Mouse Alport model of kidney fibrosis, Study 1. Type of experiment: in vivo. An excerpt: Mice with mutations in one of the collagen IV genes of glomerular basement membrane collagen, Collagen IV-α3/α4/α5, have defects in glomerular function with development of kidney fibrosis. These mice develop renal dysfunction and die prematurely of renal failure with specific timing dependent on the strain background upon which the mutation is present.
Generation of Col4a3^−/−mice was as described in Miner, J. H., and Sanes, J. R. (1996), J. Cell Biol. 135:1403-1413. Studies of Compound 1 efficacy in Alport models of kidney fibrosis were performed using mice on two different strain backgrounds. Study 1 used B 6129S1 F1 hybrid Alport mice that usually reach end stage renal disease (ESRD) at about 17 to 19 weeks. These were generated by crosses between C57BL6/J (B 6) and 129S1/Sv1mJ (129S1) Alport mice. Study 2 used inbred 129S1 Col4a3^−/− mice, which usually reach ESRD at about 11 to 13 weeks.
Study 1—B6129S1 hybrid Col4a3^−/− mice were given administrations via intraperitoneal injection of either vehicle (PBS) or Compound 1 (10 mg/kg) once a day from 6 to 17-weeks of age. There were 12 mice per group. B6129S1 hybrid Col4a3^+/− mice were used as non-disease controls. Compound 1 was dissolved at 2 mg/mL in PBS twice a week. The dosing volume was calculated as body weight (g)*5 μL (e.g. body weight 20 g: 20*5=100 μL).
Urine and blood samples were collected at the time points of 12, 15, and 17-weeks of age for B6129S1 hybrid Col4a3^+/−, −/− mice and at 8 and 10-weeks of age for inbred 129S1 Col4a3^−/− mice. Urinary protein concentration was determined by Bradford assay (Cat. 5000006, Bio-Rad) and comparison with bovine serum albumin standards. Urinary creatinine was measured by QuantiChrom™ Creatinine Assay Kit (Cat.DICT-500, BioAssay systems) and used to normalize the amount of urine. Blood urea nitrogen (BUN) levels were measured by QuantiChrom™ Urea Assay Kit (Cat.DUR2-100, BioAssay systems). Urine and blood samples were stored at −20° C. and −80° C. respectively after collection and subsequently analyzed.
For biochemistry, kidneys were collected from 15 and 17-week old B 6129S1 hybridCol4a3^+/−, −/− mice; and from 8 and 10-week old inbred 129S1 Col4a3^−/− mice. Collected kidneys were quickly frozen by liquid nitrogen and stored at −80° C. Kidneys were minced in cold PBS containing protease inhibitor (Cat. 786-108, G-BIOSCIENCES), centrifuged, and supernatants were removed. Tissue pellets were washed with PBS and centrifuged again. Tissue pellets were lysed with RIPA buffer containing protease inhibitor and phosphatase inhibitor (Sigma-Aldrich, Cat. P5726). Protein concentration was measured by BCA assays (Cat. 23227, ThermoFisher). The following antibodies were used in western blotting: anti-kidney injury molecule 1 (KIM1) antibody (AF1817, R&D), anti-Lipocalin2/NGAL antibody (ab70287, abcam), anti-phosho-STAT3 antibody (#9145, CST), anti-CTGFantibody (sc-365970, Santa Cruz), anti-TGFb 1,2,3 antibody (MAB1835, R&D), anti-Fibronectin antibody (F3648,Sigma), anti-alpha smooth muscle acting (SMA) antibody (F3777, Sigma), anti-Collagen I antibody (1310-01, SouthernBiotech), anti-Collagen IV antibody (1340-01, SouthernBiotech), anti-alpha Tubulin antibody (#2144, CST).
For all groups, analysis includes measurement of blood urea nitrogen and urinary albumin: creatinine ratios. The analysis also includes renal histopathology (glomerulosclerosis and tubulo-interstitial fibrosis; and analysis of glomerular basement membrane and podocyte ultrastructure. Plasma samples are analyzed for Compound 1 concentration to ensure adequate circulating levels for efficient target engagement. qRT-PCR is performed using RNA from several relevant tissues to examine expression of known transcriptional targets of PPARδ (e.g., PGC1α).
All data are presented as mean±SEM. Statistical significance was determined by Oneway ANOVA with Dunnett's multiple comparison for more than three group comparison and Student's t test for two group comparison.

A further experiment addresses T2, LXRα (Homo sapiens, UniProt Q13133).
T2 sequence (Q13133 1-447): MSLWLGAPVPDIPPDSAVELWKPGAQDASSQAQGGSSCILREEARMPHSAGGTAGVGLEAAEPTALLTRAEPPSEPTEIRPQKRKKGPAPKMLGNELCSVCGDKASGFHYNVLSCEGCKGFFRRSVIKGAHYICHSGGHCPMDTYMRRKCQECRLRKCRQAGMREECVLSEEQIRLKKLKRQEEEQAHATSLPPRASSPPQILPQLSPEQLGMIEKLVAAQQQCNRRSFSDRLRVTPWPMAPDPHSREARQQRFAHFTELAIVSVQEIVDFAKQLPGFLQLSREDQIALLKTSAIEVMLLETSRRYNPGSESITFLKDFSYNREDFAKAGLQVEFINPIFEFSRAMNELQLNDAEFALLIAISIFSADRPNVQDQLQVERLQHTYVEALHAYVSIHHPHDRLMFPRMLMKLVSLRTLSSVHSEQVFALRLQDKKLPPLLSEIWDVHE
As to the kind of experiment: activity on nuclear receptor LXRα.

Experiment [2] relates to human retinoid X receptor (hRXR). As to the kind of experiment: human retinoid X receptor activity.
[3] abbreviates: 10 mg/kg i.p., compared with vehicle-treated mice.
The mark [4] stands for this setting: whole kidneys, western blotting.

Turning to `Cc1cc(OC/C=C(/c2ccc(F)cc2)c2ccc(C#CCN3CCOCC3)cc2)ccc1OCC(=O)O` [Compound 1, (E)-[4-[3-(4-Fluorophenyl)-3-[4-[3-(morpholin-4-yl)propynyl]phenyl]allyloxy]-2-methyl-phenoxy]acetic acid], the “activity on LXRβ” value at LXRβ was “did not show any”. The kidney dysfunction entry in experiment [1] (10 mg/kg i.p. once a day from 6 to 17-weeks of age) is “attenuated”. Also, the “blood urea nitrogen (BUN)” value in experiment [1] (10 mg/kg i.p. once a day, at 12 and 17-weeks of age) is “suppressed the increase”. In addition, in experiment [1] (10 mg/kg i.p. once a day, at 17-weeks of age (late stage)), the proteinuria entry is recorded as “suppressed; also recorded: significantly reduced”. Besides, in experiment [1] (10 mg/kg i.p., H&E and Trichrome kidney sections), the renal histology entry was “slightly improved”. In experiment [1] (setting [3]), the extent of fibrosis result is recorded as “slightly decreased; also recorded: decreased” and the “necrotic regions in the cortex” value is “decreased”. Moreover, the “infiltration of inflammatory cells” value in experiment [1] (10 mg/kg i.p., microscopic examination of kidney sections) was “slightly reduced”. For the same molecule, in experiment [1] (setting [4]), the CTGF expression result is listed as “attenuated”, the “Collagen I expression” value was “decreased”, the “Collagen IV expression” value is given as “decreased” and the NGAL protein level entry is “decreased”. Further, in experiment [1] (setting [4]), the alpha-SMA expression result is given as “decreased”, the fibronectin expression entry is on record as “not changed” and the phosho-Stat3 expression result was “attenuated”. In addition, in experiment [1] (whole kidneys, western blotting, vs vehicle), the KIM-1 protein level entry was “not changed”. In addition, at LXRα, the “activity on LXRα” value is “did not show any”. Also, in experiment [2], the hRXR activity result is listed as “did not show any”.
